Assay results: US7858820B2, “Solid compositions suitable for oral administration containing non-hygroscopic salts of L-carnitine and the alkanoyl L-carnitines with taurine chloride and glycine chloride” (Sigma-Tau Industrie Farmaceutiche Riunite S.p.A., priority 2001, dated 2010)
Counter-ions that a name gives are not always drawn.

What was measured:
[1] = Hygroscopicity of the solid salts; assay type: physicochemical; conditions: for hygroscopicity of the starting material: remark in brackets on the reagent used
[2] = milieu with a high relative humidity content; U.S. Pat. No. 4,602,039; cited from earlier work

| hygroscopicity of the starting material [1] | SMILES | further results |
| --- | --- | --- |
| hygroscopic | NCC(=O)O [glycine hydrochloride] | – |
| hygroscopic | CCC(=O)O[C@H](CC(=O)[O-])C[N+](C)(C)C [propionyl L-carnitine inner salt] | – |
| – | CCC(=O)O[C@H](CC(=O)O)C[N+](C)(C)C [Example 2, Propionyl L-Carnitine Salt with Taurine Chloride] | hygroscopicity of the isolated solid ([1]; white crystalline solid as obtained): non-hygroscopic |
| – | C[N+](C)(C)C[C@H](O)CC(=O)[O-].O=C(O)/C=C/C(=O)O [L-carnitine fumarate] | hygroscopicity of a prior-art salt [2]: highly non-hygroscopic |

| SMILES | hygroscopicity of the starting material [1] | further results |
| --- | --- | --- |
| CC(=O)O[C@H](CC(=O)[O-])C[N+](C)(C)C [acetyl L-carnitine inner salt] | hygroscopic | – |
